Target: P. falciparum apicoplast DNA polymerase (Pf-apPOL) (Plasmodium falciparum, UniProt Q8ILY1)
Assay: Fluorescence-based high-throughput DNA polymerase assay (molecular beacon), primary screen and dose-response
Assay type: biochemical
Settings: for DNA Pol: 90 min, 10 µM; for % inhibition apPOL 180' 2.5 / % inhibition apPOL 180' 5 / % inhibition apPOL 180' 10 / % inhibition apPOL 180' 20 / % inhibition apPOL 180' 40 / % inhibition apPOL 180' 80: read at 180'
Outline: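 Single-point screening used 10 µM compound with 20 nM polymerase, 20 nM hairpin substrate and 6 µM dNTPs for 90 min at 25 °C. Confirmatory titrations (2.5–80 µM) followed fluorescence at three times, and IC50 was derived from a fit including a cooperativity term n.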

[1] = 'DNA Pol' of the 186 hits list (primary screen value)

Sequence of P. falciparum apicoplast DNA polymerase (Pf-apPOL) (Q8ILY1 entry or part of it): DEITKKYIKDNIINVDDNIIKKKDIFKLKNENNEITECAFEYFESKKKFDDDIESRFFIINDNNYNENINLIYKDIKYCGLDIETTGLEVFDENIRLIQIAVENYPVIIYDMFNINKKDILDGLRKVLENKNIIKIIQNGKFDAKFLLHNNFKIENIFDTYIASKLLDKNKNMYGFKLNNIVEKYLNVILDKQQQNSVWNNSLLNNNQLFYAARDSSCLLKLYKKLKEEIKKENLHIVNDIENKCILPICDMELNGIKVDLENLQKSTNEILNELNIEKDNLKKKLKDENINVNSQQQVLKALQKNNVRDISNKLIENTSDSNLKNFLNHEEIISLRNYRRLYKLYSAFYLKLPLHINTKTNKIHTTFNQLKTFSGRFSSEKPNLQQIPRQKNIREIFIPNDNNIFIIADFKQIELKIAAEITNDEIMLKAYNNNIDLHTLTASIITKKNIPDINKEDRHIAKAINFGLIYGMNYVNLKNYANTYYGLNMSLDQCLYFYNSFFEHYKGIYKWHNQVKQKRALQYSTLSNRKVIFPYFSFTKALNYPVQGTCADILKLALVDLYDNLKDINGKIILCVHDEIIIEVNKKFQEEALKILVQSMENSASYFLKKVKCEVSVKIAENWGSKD

## O=c1[nH]c2ccc([N+](=O)[O-])cc2c(-c2ccccc2)c1Sc1nc2ccccc2o1 [KU0067471]
[1]
  DNA Pol: 28
DNA Pol (primary screen value)
  DNA Pol: 28
DRC-1, concentration 2.5
  % inhibition Apo pol 10': 11.1433%
  % inhibition Apol 90': 8.412%
  % inhibition apPOL 180': 7.341%
DRC-1, concentration 5
  % inhibition Apo pol 10': 11.3784%
  % inhibition Apol 90': 5.979%
  % inhibition apPOL 180': 3.743%
DRC-1, concentration 10
  % inhibition Apo pol 10': 23.2925%
  % inhibition Apol 90': 13.3902%
  % inhibition apPOL 180': 8.363%
DRC-1, concentration 20
  % inhibition Apo pol 10': 44.3997%
  % inhibition Apol 90': 30.6503%
  % inhibition apPOL 180': 19.4729%
DRC-1, concentration 40
  % inhibition Apo pol 10': 71.988%
  % inhibition Apol 90': 58.6016%
  % inhibition apPOL 180': 44.0566%
DRC-1, concentration 80
  % inhibition Apo pol 10': 85.2168%
  % inhibition Apol 90': 77.507%
  % inhibition apPOL 180': 66.9195%
DRC-2, concentration 2.5
  % inhibition Apo pol 5': 9%
  % inhibition Apol 40': 7%
  % inhibition ApPOL 90': 5%
  % inhibition apPOL 180': -0.297%
DRC-2, concentration 5
  % inhibition Apo pol 5': 12%
  % inhibition Apol 40': 9%
  % inhibition ApPOL 90': 7%
  % inhibition apPOL 180': -0.499%
DRC-2, concentration 10
  % inhibition Apo pol 5': 26%
  % inhibition Apol 40': 24%
  % inhibition ApPOL 90': 20%
  % inhibition apPOL 180': 10%
DRC-2, concentration 20
  % inhibition Apo pol 5': 42%
  % inhibition Apol 40': 43%
  % inhibition ApPOL 90': 40%
  % inhibition apPOL 180': 26%
DRC-2, concentration 40
  % inhibition Apo pol 5': 59%
  % inhibition Apol 40': 65%
  % inhibition ApPOL 90': 65%
  % inhibition apPOL 180': 57%
DRC-2, concentration 80
  % inhibition Apo pol 5': 60%
  % inhibition Apol 40': 72%
  % inhibition ApPOL 90': 73%
  % inhibition apPOL 180': 72%

## O=C(NNC(=O)c1ccc(Cl)cc1)C(=O)NNC(=O)c1ccc(Cl)cc1 [Molecule 25, O=C(C(=O)NNC(=O)c1ccc(cc1)Cl)NNC(=O)c1ccc(cc1)Cl]
[1]
  DNA Pol: 75
DNA Pol (primary screen value)
  DNA Pol: 75
DRC-1, concentration 2.5
  % inhibition Apo pol 10': 0.1123%
  % inhibition Apol 90': -1.798%
  % inhibition apPOL 180': -4.906%
DRC-1, concentration 5
  % inhibition Apo pol 10': 29.8674%
  % inhibition Apol 90': 28.7698%
  % inhibition apPOL 180': 25.5591%
DRC-1, concentration 10
  % inhibition Apo pol 10': 53.2072%
  % inhibition Apol 90': 48.8169%
  % inhibition apPOL 180': 45.9729%
DRC-1, concentration 20
  % inhibition Apo pol 10': 61.5061%
  % inhibition Apol 90': 54.9619%
  % inhibition apPOL 180': 50.6657%
DRC-1, concentration 40
  % inhibition Apo pol 10': 64.1413%
  % inhibition Apol 90': 57.5316%
  % inhibition apPOL 180': 53.135%
DRC-1, concentration 80
  % inhibition Apo pol 10': 75.0048%
  % inhibition Apol 90': 69.6376%
  % inhibition apPOL 180': 64.4119%
DRC-2, concentration 2.5
  % inhibition Apo pol 5': 2.6%
  % inhibition Apol 40': 2%
  % inhibition ApPOL 90': 0.656%
  % inhibition apPOL 180': -2.65%
DRC-2, concentration 5
  % inhibition Apo pol 5': 10%
  % inhibition Apol 40': 13%
  % inhibition ApPOL 90': 13%
  % inhibition apPOL 180': 7.39%
DRC-2, concentration 10
  % inhibition Apo pol 5': 29%
  % inhibition Apol 40': 35%
  % inhibition ApPOL 90': 36%
  % inhibition apPOL 180': 30%
DRC-2, concentration 20
  % inhibition Apo pol 5': 45%
  % inhibition Apol 40': 54%
  % inhibition ApPOL 90': 54%
  % inhibition apPOL 180': 48%
DRC-2, concentration 40
  % inhibition Apo pol 5': 49%
  % inhibition Apol 40': 58%
  % inhibition ApPOL 90': 60%
  % inhibition apPOL 180': 55%
DRC-2, concentration 80
  % inhibition Apo pol 5': 51%
  % inhibition Apol 40': 62%
  % inhibition ApPOL 90': 64%
  % inhibition apPOL 180': 62%

## Cc1nc(C)c2c(n1)N(CC1CCCCC1)C(=O)CC2 [KU0218606]
186 hits, DNA Pol (screen value), unit not given
  DNA Pol: 50
'DNA Pol' (screen value), unit not given
  DNA Pol: 50
DRC-1, read at 10', concentration 2.5
  % inhibition Apo pol 10' 2.5: 34.0428%
DRC-1, read at 10', concentration 5
  % inhibition Apo pol 10' 5: 39.9001%
DRC-1, read at 10', concentration 10
  % inhibition Apo pol 10' 10: 47.3749%
DRC-1, read at 10', concentration 20
  % inhibition Apo pol 10' 20: 48.9825%
DRC-1, read at 10', concentration 40
  % inhibition Apo pol 10' 40: 54.7667%
DRC-1, read at 10', concentration 80
  % inhibition Apo pol 10' 80: 55.4322%
DRC-1, read at 90', concentration 2.5
  % inhibition Apol 90' 2.5: 24.6813%
DRC-1, read at 90', concentration 5
  % inhibition Apol 90' 5: 31.9392%
DRC-1, read at 90', concentration 10
  % inhibition Apol 90' 10: 42.478%
DRC-1, read at 90', concentration 20
  % inhibition Apol 90' 20: 47.74%
DRC-1, read at 90', concentration 40
  % inhibition Apol 90' 40: 54.1171%
DRC-1, read at 90', concentration 80
  % inhibition Apol 90' 80: 56.5278%
DRC-1, concentration 2.5
  % inhibition apPOL 180' 2.5: 16.0854%
DRC-1, concentration 5
  % inhibition apPOL 180' 5: 24.5851%
DRC-1, concentration 10
  % inhibition apPOL 180' 10: 35.963%
DRC-1, concentration 20
  % inhibition apPOL 180' 20: 43.6778%
DRC-1, concentration 40
  % inhibition apPOL 180' 40: 53.1041%
DRC-1, concentration 80
  % inhibition apPOL 180' 80: 57.3534%
DRC-2, concentration 5
  % inhibition Apo pol 5': 24%
  % inhibition Apol 40': 30%
  % inhibition apPOL 180' 5: 26%
DRC-2, concentration 20
  % inhibition Apo pol 5': 27%
  % inhibition ApPOL 90': 42%
  % inhibition apPOL 180': 38%
  % inhibition apPOL 180' 20: 38%
DRC-2, concentration 40
  % inhibition Apo pol 5': 30%
  % inhibition Apol 40': 42%
  % inhibition apPOL 180': 42%
  % inhibition apPOL 180' 40: 42%
DRC-2, concentration 80
  % inhibition Apo pol 5': 27%
  % inhibition apPOL 180' 80: 46%
DRC-2, concentration 2.5
  % inhibition Apol 40': 24%
  % inhibition apPOL 180' 2.5: 18%
DRC-2, concentration 10
  % inhibition ApPOL 90': 38%
  % inhibition apPOL 180' 10: 34%
DRC-2, read at 5', concentration 2.5
  % inhibition Apo pol 5' 2.5: 20%
DRC-2, read at 5', concentration 5
  % inhibition Apo pol 5' 5: 24%
DRC-2, read at 5', concentration 10
  % inhibition Apo pol 5' 10: 28%
DRC-2, read at 5', concentration 20
  % inhibition Apo pol 5' 20: 27%
DRC-2, read at 5', concentration 40
  % inhibition Apo pol 5' 40: 30%
DRC-2, read at 5', concentration 80
  % inhibition Apo pol 5' 80: 27%
DRC-2, read at 40', concentration 2.5
  % inhibition Apol 40' 2.5: 24%
DRC-2, read at 40', concentration 5
  % inhibition Apol 40' 5: 30%
DRC-2, read at 40', concentration 10
  % inhibition Apol 40' 10: 36%
DRC-2, read at 40', concentration 20
  % inhibition Apol 40' 20: 39%
DRC-2, read at 40', concentration 40
  % inhibition Apol 40' 40: 42%
DRC-2, read at 40', concentration 80
  % inhibition Apol 40' 80: 41%
DRC-2, read at 90', concentration 2.5
  % inhibition ApPOL 90' 2.5: 25%
DRC-2, read at 90', concentration 5
  % inhibition ApPOL 90' 5: 31%
DRC-2, read at 90', concentration 10
  % inhibition ApPOL 90' 10: 38%
DRC-2, read at 90', concentration 20
  % inhibition ApPOL 90' 20: 42%
DRC-2, read at 90', concentration 40
  % inhibition ApPOL 90' 40: 45%
DRC-2, read at 90', concentration 80
  % inhibition ApPOL 90' 80: 47%

## O=C(Cn1ccc2c(=O)[nH]ccc21)Nc1cc(F)ccc1F [Molecule 42, O=C(Cn1ccc2c1cc[nH]c2=O)Nc1cc(F)ccc1F]
[1]
  DNA Pol: 40
DNA Pol (primary screen value)
  DNA Pol: 40
DRC-1, concentration 2.5
  % inhibition Apo pol 10': -0.6304%
  % inhibition Apol 90': -3.25%
  % inhibition apPOL 180': -7.978%
DRC-1, concentration 5
  % inhibition Apo pol 10': 13.4677%
  % inhibition Apol 90': 4.148%
  % inhibition apPOL 180': -3.837%
DRC-1, concentration 10
  % inhibition Apo pol 10': 49.4515%
  % inhibition Apol 90': 35.5527%
  % inhibition apPOL 180': 18.2291%
DRC-1, concentration 20
  % inhibition Apo pol 10': 62.1247%
  % inhibition Apol 90': 52.2284%
  % inhibition apPOL 180': 34.5428%
DRC-1, concentration 40
  % inhibition Apo pol 10': 77.421%
  % inhibition Apol 90': 71.4461%
  % inhibition apPOL 180': 57.1907%
DRC-1, concentration 80
  % inhibition Apo pol 10': 76.1541%
  % inhibition Apol 90': 77.7263%
  % inhibition apPOL 180': 71.3539%
DRC-2, concentration 2.5
  % inhibition Apo pol 5': 3.65%
  % inhibition Apol 40': 2.11%
  % inhibition ApPOL 90': 0.827%
  % inhibition apPOL 180': -5%
DRC-2, concentration 5
  % inhibition Apo pol 5': 11%
  % inhibition Apol 40': 13%
  % inhibition ApPOL 90': 10%
  % inhibition apPOL 180': 4.53%
DRC-2, concentration 10
  % inhibition Apo pol 5': 31%
  % inhibition Apol 40': 36%
  % inhibition ApPOL 90': 34%
  % inhibition apPOL 180': 24%
DRC-2, concentration 20
  % inhibition Apo pol 5': 40%
  % inhibition Apol 40': 54%
  % inhibition ApPOL 90': 54%
  % inhibition apPOL 180': 46%
DRC-2, concentration 40
  % inhibition Apo pol 5': 37%
  % inhibition Apol 40': 58%
  % inhibition ApPOL 90': 60%
  % inhibition apPOL 180': 59%
DRC-2, concentration 80
  % inhibition Apo pol 5': 27%
  % inhibition Apol 40': 54%
  % inhibition ApPOL 90': 59%
  % inhibition apPOL 180': 62%
